# Assay results from ChEMBL document CHEMBL1201862, “PubChem BioAssay data set” (2004).
#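 Test compounds were applied to cells in 96-well plates for 48 hours at 5 doses. GI50 is the concentration that inhibits growth by half.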 Active and inactive are the calls of the source. Cut-off read from the data, not from the text of the source: active = GI50 up to about 1.1 µM and inactive = higher.
# Columns and labels:
# Experiment in all cases: NCI-60 cell line screen, 48 h
# 786-0 = tested on: 786-0
# A498 = tested on: A498
# A549 = tested on: A549
# ACHN = tested on: ACHN
# CAKI-1 = tested on: CAKI-1
# CCRF-CEM = tested on: CCRF-CEM
# COLO 205 = tested on: COLO 205
# DLD-1 = tested on: DLD-1
# DMS-114 = tested on: DMS-114
# DMS-273 = tested on: DMS-273
# EKVX = tested on: EKVX
# HCC 2998 = tested on: HCC 2998
# HCT-116 = tested on: HCT-116
# HCT-15 = tested on: HCT-15
# HL-60 = tested on: HL-60
# HOP-18 = tested on: HOP-18
# HOP-62 = tested on: HOP-62
# HOP-92 = tested on: HOP-92
# HT-29 = tested on: HT-29
# IGROV-1 = tested on: IGROV-1
# K562 = tested on: K562
# KM-20L2 = tested on: KM-20L2
# KM12 = tested on: KM12
# LOX IMVI = tested on: LOX IMVI
# LXFL 529 = tested on: LXFL 529
# M14 = tested on: M14
# M19-MEL = tested on: M19-MEL
# MOLT-4 = tested on: MOLT-4
# Malme-3M = tested on: Malme-3M
# NCI-H226 = tested on: NCI-H226
# NCI-H23 = tested on: NCI-H23
# NCI-H460 = tested on: NCI-H460
# NCI-H522 = tested on: NCI-H522
# OVCAR-3 = tested on: OVCAR-3
# OVCAR-4 = tested on: OVCAR-4
# OVCAR-5 = tested on: OVCAR-5
# OVCAR-8 = tested on: OVCAR-8
# RPMI-8226 = tested on: RPMI-8226
# SF-268 = tested on: SF-268
# SF-295 = tested on: SF-295
# SF-539 = tested on: SF-539
# SK-MEL-28 = tested on: SK-MEL-28
# SK-MEL-2 = tested on: SK-MEL-2
# SK-MEL-5 = tested on: SK-MEL-5
# SK-OV-3 = tested on: SK-OV-3
# SN12C = tested on: SN12C
# SNB-19 = tested on: SNB-19
# SNB-75 = tested on: SNB-75
# SNB-78 = tested on: SNB-78
# SR = tested on: SR
# SW-620 = tested on: SW-620
# TK-10 = tested on: TK-10
# U-251 = tested on: U-251
# UACC-257 = tested on: UACC-257
# UACC-62 = tested on: UACC-62
# UO-31 = tested on: UO-31
# XF498 = tested on: XF498
# RXF 393 = tested on: RXF 393
# RXF 631 = tested on: RXF 631
compound,measurement,setting,value
CCNC(=O)CCN(C(=O)O)S(=O)(=O)c1ccc(NC(=O)c2ccccc2)cc1,GI50,786-0,10.3 µM (inactive)
same,GI50,A498,> 100 µM (inactive)
same,GI50,A549,> 100 µM (inactive)
same,GI50,ACHN,> 100 µM (inactive)
same,GI50,CAKI-1,> 100 µM (inactive)
same,GI50,CCRF-CEM,59.4 µM (inactive)
same,GI50,COLO 205,> 100 µM (inactive)
same,GI50,DLD-1,> 100 µM (inactive)
same,GI50,DMS-114,> 100 µM (inactive)
same,GI50,DMS-273,23.8 µM (inactive)
same,GI50,EKVX,> 100 µM (inactive)
same,GI50,HCC 2998,> 100 µM (inactive)
same,GI50,HCT-116,35.6 µM (inactive)
same,GI50,HCT-15,> 100 µM
same,GI50,HL-60,> 100 µM (inactive)
same,GI50,HOP-18,> 100 µM (inactive)
same,GI50,HOP-62,> 100 µM (inactive)
same,GI50,HOP-92,> 100 µM (inactive)
same,GI50,HT-29,50.8 µM (inactive)
same,GI50,IGROV-1,> 100 µM (inactive)
same,GI50,K562,86.3 µM (inactive)
same,GI50,KM-20L2,> 100 µM (inactive)
same,GI50,KM12,> 100 µM (inactive)
same,GI50,LOX IMVI,22.6 µM (inactive)
same,GI50,LXFL 529,> 100 µM (inactive)
same,GI50,M14,> 100 µM (inactive)
same,GI50,M19-MEL,77.6 µM (inactive)
same,GI50,MOLT-4,> 100 µM (inactive)
same,GI50,Malme-3M,> 100 µM (inactive)
same,GI50,NCI-H226,> 100 µM (inactive)
same,GI50,NCI-H23,> 100 µM (inactive)
same,GI50,NCI-H460,> 100 µM (inactive)
same,GI50,NCI-H522,> 100 µM (inactive)
same,GI50,OVCAR-3,> 100 µM (inactive)
same,GI50,OVCAR-4,> 100 µM (inactive)
same,GI50,OVCAR-5,> 100 µM (inactive)
same,GI50,OVCAR-8,> 100 µM (inactive)
same,GI50,RPMI-8226,> 100 µM (inactive)
same,GI50,SF-268,> 100 µM (inactive)
same,GI50,SF-295,> 100 µM (inactive)
same,GI50,SF-539,> 100 µM (inactive)
same,GI50,SK-MEL-28,> 100 µM (inactive)
same,GI50,SK-MEL-2,> 100 µM (inactive)
same,GI50,SK-MEL-5,> 100 µM (inactive)
same,GI50,SK-OV-3,> 100 µM (inactive)
same,GI50,SN12C,> 100 µM (inactive)
same,GI50,SNB-19,> 100 µM (inactive)
same,GI50,SNB-75,> 100 µM (inactive)
same,GI50,SNB-78,> 100 µM (inactive)
same,GI50,SR,> 100 µM (inactive)
same,GI50,SW-620,15.5 µM (inactive)
same,GI50,TK-10,> 100 µM (inactive)
same,GI50,U-251,> 100 µM (inactive)
same,GI50,UACC-257,> 100 µM (inactive)
same,GI50,UACC-62,> 100 µM (inactive)
same,GI50,UO-31,> 100 µM (inactive)
same,GI50,XF498,> 100 µM (inactive)
COc1ccc(C(=O)NCCN(C)C)c2nc3ccccc3nc12,GI50,786-0,9.06 µM (inactive)
same,GI50,A498,4.21 µM (inactive)
same,GI50,A549,4.93 µM (inactive)
same,GI50,ACHN,2.79 µM (inactive)
same,GI50,COLO 205,3.46 µM (inactive)
same,GI50,DLD-1,4.23 µM (inactive)
same,GI50,DMS-114,3.39 µM (inactive)
same,GI50,DMS-273,4.6 µM (inactive)
same,GI50,EKVX,6.41 µM (inactive)
same,GI50,HCC 2998,5.15 µM (inactive)
same,GI50,HCT-116,2.24 µM (inactive)
same,GI50,HCT-15,3.66 µM
same,GI50,HOP-18,> 30.8 µM (inactive)
same,GI50,HOP-62,3.3 µM (inactive)
same,GI50,HOP-92,9.51 µM (inactive)
same,GI50,HT-29,2.76 µM (inactive)
same,GI50,IGROV-1,3.14 µM (inactive)
same,GI50,K562,2.05 µM (inactive)
same,GI50,KM-20L2,4.95 µM (inactive)
same,GI50,KM12,4.82 µM (inactive)
same,GI50,LOX IMVI,2.01 µM (inactive)
same,GI50,LXFL 529,6.7 µM (inactive)
same,GI50,M14,5.37 µM (inactive)
same,GI50,M19-MEL,3.15 µM (inactive)
same,GI50,MOLT-4,1.94 µM (inactive)
same,GI50,Malme-3M,2.3 µM (inactive)
same,GI50,NCI-H226,3.48 µM (inactive)
same,GI50,NCI-H23,4.72 µM (inactive)
same,GI50,NCI-H522,11.7 µM (inactive)
same,GI50,OVCAR-3,5.25 µM (inactive)
same,GI50,OVCAR-4,4.09 µM (inactive)
same,GI50,OVCAR-5,8.61 µM (inactive)
same,GI50,OVCAR-8,4.3 µM (inactive)
same,GI50,RPMI-8226,3.21 µM (inactive)
same,GI50,RXF 393,11.4 µM (inactive)
same,GI50,RXF 631,9.12 µM (inactive)
same,GI50,SF-295,6.82 µM (inactive)
same,GI50,SF-539,4.57 µM (inactive)
same,GI50,SK-MEL-28,5.89 µM (inactive)
same,GI50,SK-MEL-2,4.01 µM (inactive)
same,GI50,SK-MEL-5,4.81 µM (inactive)
same,GI50,SK-OV-3,19.5 µM (inactive)
same,GI50,SN12C,3.62 µM (inactive)
same,GI50,SNB-19,6.01 µM (inactive)
same,GI50,SNB-75,8.11 µM (inactive)
same,GI50,SNB-78,3.72 µM (inactive)
same,GI50,SR,0.708 µM (active)
same,GI50,SW-620,2.7 µM (inactive)
same,GI50,TK-10,5.18 µM (inactive)
same,GI50,U-251,4.79 µM (inactive)
same,GI50,UACC-257,3.56 µM (inactive)
same,GI50,UACC-62,5.38 µM (inactive)
O=C(Nc1ccccc1C(=O)O)C(=O)C(C(=O)c1ccccc1-c1ccccc1)C1OC(=O)c2ccccc21 (stereo not given),GI50,786-0,18 µM (inactive)
same,GI50,A498,19.3 µM (inactive)
same,GI50,A549,31.4 µM (inactive)
same,GI50,ACHN,34 µM (inactive)
same,GI50,CAKI-1,36 µM (inactive)
same,GI50,CCRF-CEM,22.1 µM (inactive)
same,GI50,COLO 205,24 µM (inactive)
same,GI50,DLD-1,23.5 µM (inactive)
same,GI50,DMS-273,26.5 µM (inactive)
same,GI50,EKVX,23.4 µM (inactive)
same,GI50,HCC 2998,16.5 µM (inactive)
same,GI50,HCT-116,22 µM (inactive)
same,GI50,HCT-15,16.5 µM
same,GI50,HL-60,23.9 µM (inactive)
same,GI50,HOP-18,12.6 µM (inactive)
same,GI50,HOP-62,18 µM (inactive)
same,GI50,HT-29,29.7 µM (inactive)
same,GI50,IGROV-1,25.6 µM (inactive)
same,GI50,K562,36.1 µM (inactive)
same,GI50,KM-20L2,22 µM (inactive)
same,GI50,KM12,18 µM (inactive)
same,GI50,LOX IMVI,18.7 µM (inactive)
same,GI50,LXFL 529,14.7 µM (inactive)
same,GI50,M14,17.1 µM (inactive)
same,GI50,M19-MEL,21.1 µM (inactive)
same,GI50,MOLT-4,21.8 µM (inactive)
same,GI50,Malme-3M,12.2 µM (inactive)
same,GI50,NCI-H226,12.5 µM (inactive)
same,GI50,NCI-H23,22.8 µM (inactive)
same,GI50,NCI-H460,17.8 µM (inactive)
same,GI50,NCI-H522,16.2 µM (inactive)
same,GI50,OVCAR-3,16.6 µM (inactive)
same,GI50,OVCAR-4,35 µM (inactive)
same,GI50,OVCAR-5,23.6 µM (inactive)
same,GI50,OVCAR-8,15.7 µM (inactive)
same,GI50,RPMI-8226,25.2 µM (inactive)
same,GI50,RXF 393,13.6 µM (inactive)
same,GI50,SF-268,16.8 µM (inactive)
same,GI50,SF-295,25.2 µM (inactive)
same,GI50,SF-539,16.6 µM (inactive)
same,GI50,SK-MEL-28,19.4 µM (inactive)
same,GI50,SK-MEL-2,38 µM (inactive)
same,GI50,SK-MEL-5,19.2 µM (inactive)
same,GI50,SK-OV-3,30.9 µM (inactive)
same,GI50,SN12C,17.1 µM (inactive)
same,GI50,SNB-19,16.1 µM (inactive)
same,GI50,SNB-75,25.1 µM (inactive)
same,GI50,SNB-78,> 100 µM (inactive)
same,GI50,SR,18.3 µM (inactive)
same,GI50,SW-620,27.3 µM (inactive)
same,GI50,TK-10,13.9 µM (inactive)
same,GI50,U-251,15.4 µM (inactive)
same,GI50,UACC-257,16.7 µM (inactive)
same,GI50,UACC-62,16.6 µM (inactive)
same,GI50,UO-31,18 µM (inactive)
same,GI50,XF498,10.3 µM (inactive)
